Measured values published in patent publication US6627652B1, “Method of treatment with compounds having selective agonist-like activity on RXR retinoid receptors” (Allergan, Inc., priority 1993, dated 2003).
Converted amounts (≈) assume the structure as drawn. “Also recorded” adds a separate entry of the source. Read-outs that look alike come from different tables or passages of the source. Blank lines part the entries; values can stand above or below the compound they belong to.

Legend:
[1] = pharmacokinetic study, concentration in maternal plasma and embryo of mice; type: in vivo; conditions: oral intubation, single dose of 10 mg/kg, FIG. 8
Description: FIG. 8 is a graph showing the concentration of compound AGN 191701 (Compound 1) in nanograms per ml, or nanograms per gram as indicated on the chart, in the plasma and embryo of mice at various times after oral intubation of a single dose of 10 mg/kg of the compound.

chimeric RARγ receptor = biological target: T1, chimeric RARγ receptor (Homo sapiens, UniProt P13631); experiment: Cationic Liposome Mediated Transfection Assay (ERE-CAT reporter in HeLa cells), RARγ
T1 sequence (P13631 185-419 limits assumed): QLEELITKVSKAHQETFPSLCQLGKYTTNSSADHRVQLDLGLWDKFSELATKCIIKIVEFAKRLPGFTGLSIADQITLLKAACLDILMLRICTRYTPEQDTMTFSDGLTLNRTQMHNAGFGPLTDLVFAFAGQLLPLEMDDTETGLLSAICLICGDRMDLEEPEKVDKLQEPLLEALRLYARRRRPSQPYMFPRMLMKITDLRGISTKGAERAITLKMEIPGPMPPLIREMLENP

chimeric RARβ receptor = biological target: T2, chimeric RARβ receptor (Homo sapiens, UniProt P10826); experiment: Cationic Liposome Mediated Transfection Assay (ERE-CAT reporter in HeLa cells), RARβ
T2 sequence (P10826 183-417 limits assumed): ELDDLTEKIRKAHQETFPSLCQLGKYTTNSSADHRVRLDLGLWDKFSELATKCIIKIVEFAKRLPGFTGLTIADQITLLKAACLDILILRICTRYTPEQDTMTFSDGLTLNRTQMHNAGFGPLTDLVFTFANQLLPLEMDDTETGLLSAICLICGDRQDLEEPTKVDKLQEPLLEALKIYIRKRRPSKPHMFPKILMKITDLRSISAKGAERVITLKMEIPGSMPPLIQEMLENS

chimeric RXRα receptor = biological target: T3, chimeric RXRα receptor (Homo sapiens, UniProt P19793); experiment: Cationic Liposome Mediated Transfection Assay (ERE-CAT reporter in HeLa cells), RXRα; type: cell-based; conditions: concentration giving 50% of maximum CAT activity of reference AGN 191440
T3 construct: expressed in transfected cells; host or cells: HeLa cells
T3 sequence (P19793 227-458 limits assumed): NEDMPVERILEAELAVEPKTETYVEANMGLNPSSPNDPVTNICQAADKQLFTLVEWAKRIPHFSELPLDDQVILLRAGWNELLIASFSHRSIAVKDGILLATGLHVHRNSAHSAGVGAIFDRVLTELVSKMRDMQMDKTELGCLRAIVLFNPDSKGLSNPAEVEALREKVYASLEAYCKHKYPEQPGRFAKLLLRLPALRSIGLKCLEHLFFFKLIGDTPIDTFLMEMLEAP

gestating ICR mice = experiment: in vivo teratology study in gestating ICR mice; parameters: species or system mouse; conditions: for teratogenicity (in words): conclusion from Table 2
Description: The methodology of the study is described as follows: ICR mice (Ace Animals, Boyertown, Pa.) were used. Mature male and virgin female ICR mice were housed in environmentally controlled rooms and acclimatized to a 12 hour light/dark cycle (light cycle 6 A.M. to 6 P.M.) for 2 weeks prior to use. All animals were maintained on Purina Lab Chow and tap water ad libitum. A group of 3-4 females was caged with a single male of proven fertility for 4 hours. Presence of a vaginal plug immediately afterward was regarded as evidence of successful mating, and this day was designated as day 0 of gestation. […] All animals were killed by cervical dislocation under mild ether anesthesia on day 17 of gestation. Upon laparotomy, the fetuses were examined for external malformations and weighed; one-half of each litter was then fixed in 95% ethanol and processed for staining of the skeleton by the rapid, alizarin red-S dye method. These preparations were examined under a dissection microscope to screen for abnormalities in the axial and the appendicular skeleton. The other half of each litter was fixed in Bouin's solution and examined by freehand razor serial sectioning to screen for anomalies of the brain, face, and palate. Differences in dose-related incidence of malformations and resorptions were assessed by computing percentages of affected conceptuses among total implantation sites. The groups were compared statistically by a method based on Student's t-tests of arcs in square root transformed percentages. Values at 0.05 probability level were considered significant. The median effective dose was calculated by logarithmic curve fitting of the dose-response data.

human sebocyte cultures = experiment: 3H-thymidine incorporation assay in human sebocyte cultures; type: cell-based; conditions: FIG. 3, 8 days of treatment
Description: An assay involving human sebocyte cultures measures the inhibition of ^3H-thymidine into cells, and thus measures inhibition of DNA synthesis and thus an anti-proliferative effect on sebocyte (i.e. a sebostatic effect). This assay is also considered a specific assay for effectiveness of a compound as a potential anti-acne drug. The test is conducted as follows. Face-lift or forehead reduction skins from cosmetic surgeries were used as sources of human sebaceous gland cells (sebocytes). Isolated sebocytes were plated in type 1 collagen coated-dishes in DMEM/F12 (1:1) medium supplemented with 8% fetal bovine serum, 2% human serum, 10 ng/ml epidermal growth factor, 1 nM cholera toxin, 1 μM hydrocortisone, and penicillin/streptomycin/amphotericin B. Secondary cultures were prepared by plating Dispase dissociated cells in collagen coated 24-well plates. […] DNA from the cells were extracted by thichoroacetic acid and perchloric acid, and assayed for radioactivity by scintillation counting and for content of DNA by the diphenylamine colorimetric method. The results were expressed as CPM/μg DNA, or as per cent of vehicle control which incorporated about 1,000-1,500 cpm/μg DNA.

[2] = system: limb bud mesenchymal cells; experiment: inhibition of chondrogenesis in high-density spot cultures of limb bud mesenchymal cells; type: cell-based, mouse; conditions: for IC50: Mus musculus
Description: An in vitro bioassay which measures inhibition of chondrogenesis (bone formation) in chick embryo cells is considered a classic measure of teratogenecity. The assay is conducted as follows: High-density “spot” cultures of limb bud mesenchymal cells were used to compare the ability of various concentrations of test drugs to suppress chondrogenic differentiation as a bioassay. Forelimb buds of mouse embryos on day 12 of gestation (54±2 somites) were dissociated in a trypsin-EDTA solution, and the resultant single-cell suspension was plated as 20-μl spots (200,000 cells/spot) on plastic culture dishes. Retinoid concentrations ranging from 0.3 ng/ml to 3 μg/ml (1 nM-10 μM) were added to the culture medium (Eagle's MEM+10% fetal bovine serum, GIBCO) 24 hours after initial plating. Control cultures received only the vehicle (ethanol, concentration≦1% by vol); Retinoic acid was used as a positive control in another set of cultures. The cultures were terminated 96 hours after plating, at which time the medium was removed and the cells were fixed for 1 hour in 10% formalin containing 0.5% cetylpyridinium chloride. The cultures were rinsed in acetic acid and stained for 1 hour in 0.5% Alcian blue solution at pH 1.0, differentiated in 3% acetic acid, and then dehydrated in ethanol and scored for chondrogenesis under the microscope. An absence or reduction in the number of cartilage nodules in stained cultures as compared with control cultures was taken as a measure of suppression of chondrogenesis. The number of cartilage nodules stained in the whole spot, mean number of nodules, and standard deviations were calculated for four replicate cultures per treatment. The median concentration causing a 50% inhibition of chondrogenesis compared with controls (IC50) was calculated by logarithmic curve fitting of the dose-response data.

chimeric RARα receptor = biological target: T4, chimeric RARα receptor (Homo sapiens, UniProt P10276); experiment: Cationic Liposome Mediated Transfection Assay (ERE-CAT reporter in HeLa cells), RARα
T4 sequence (P10276 183-417 limits assumed): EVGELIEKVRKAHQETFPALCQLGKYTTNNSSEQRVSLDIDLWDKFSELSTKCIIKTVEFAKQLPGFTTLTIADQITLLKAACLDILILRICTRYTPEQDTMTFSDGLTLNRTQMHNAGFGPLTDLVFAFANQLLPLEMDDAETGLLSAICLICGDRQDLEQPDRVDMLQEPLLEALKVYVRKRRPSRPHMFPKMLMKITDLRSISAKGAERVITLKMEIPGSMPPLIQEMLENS

[3] = single oral dose 1 mg/kg on day 11 of gestation
[4] = single oral dose 10 mg/kg on day 11 of gestation
[5] = single oral dose 100 mg/kg on day 11 of gestation
[6] = Table 3, cultures terminated 96 hours after plating, read-out: IC50, 50% inhibition of chondrogenesis
[7] = single oral dose 0.01 mg/kg on day 11 of gestation
[8] = single oral dose 0.1 mg/kg on day 11 of gestation

Structure (SMILES): C/C(=C\C=C\c1occc1C(=O)O)c1cc2c(cc1C)C(C)(C)CCC2(C)C [Compound 2]
EC50 (chimeric RXRα receptor): 1060 nM

Structure (SMILES): C/C(=C/C=C/c1occc1C(=O)O)c1cc2c(cc1C)C(C)(C)CCC2(C)C [Compound 3]
EC50 (chimeric RXRα receptor): 1310 nM

Structure (SMILES): C/C(=C\c1ccc(C(=O)O)cc1)c1ccc2c(c1)C(C)(C)CCC2(C)C [Compound 7, reference compound]
EC50 (chimeric RXRα receptor): > 10000 nM
teratogenicity (in words) (gestating ICR mice): much more teratogenic than Compound 1
# Litters Normal (gestating ICR mice; [7]): 2
% Cleft Palate (gestating ICR mice; [7]): 29%
% Limb Defects (gestating ICR mice; [7]): 20%
% Resorbed (gestating ICR mice; [7]): 3%
# Litters Normal (gestating ICR mice; [8]): 0
% Cleft Palate (gestating ICR mice; [8]): 100%
% Limb Defects (gestating ICR mice; [8]): 100%
% Resorbed (gestating ICR mice; [8]): 30%
# Litters Normal (gestating ICR mice; [3]): 0
% Resorbed (gestating ICR mice; [3]): 100%
# Litters Normal (gestating ICR mice; [4]): 0
% Resorbed (gestating ICR mice; [4]): 100%
IC50 [2, 6]: 0.003 µg/mL (≈ 0.00861 µM)
IC50 ([2]; text b179, read-out: IC50, inhibition of chondrogenesis (unit inferred)): 0.003 µg/mL (≈ 0.00861 µM)

Now those with a lower EC50 (chimeric RXRα receptor), led by results:

EC50 (chimeric RARγ receptor): 1070 nM
EC50 (chimeric RARβ receptor): 3.35 µM
EC50 (chimeric RXRα receptor): 67 nM
IC50 [2, 6]: 19 µg/mL (≈ 51.6 µM)
IC50 ([2]; text b179, read-out: IC50, inhibition of chondrogenesis): 19 µg/mL (≈ 51.6 µM)
Structure (SMILES): C/C(=C\c1cc(C(=O)O)cs1)c1cc2c(cc1C)C(C)(C)CCC2(C)C [Compound 1, 2-[(E)-2-(5,6,7,8-Tetrahydro-3,5,5,8,8-pentamethylnaphthalen-2-yl)propen-1-yl]thiophene-4-carboxylic Acid]
presence in maternal plasma and embryo (in words) [1]: present in substantial concentration in the maternal plasma and in the embryo
teratogenicity (in words) (gestating ICR mice; listed as AGN 191701): practically not teratogenic; also recorded: very little teratogenic effect
# Litters Normal (gestating ICR mice; [3]): 1
% Cleft Palate (gestating ICR mice; [3]): 0%
% Limb Defects (gestating ICR mice; [3]): 0%
% Resorbed (gestating ICR mice; [3]): 18%
# Litters Normal (gestating ICR mice; [4]): 3
% Cleft Palate (gestating ICR mice; [4]): 0%
% Limb Defects (gestating ICR mice; [4]): 0%
% Resorbed (gestating ICR mice; [4]): 14%
# Litters Normal (gestating ICR mice; [5]): 2
% Cleft Palate (gestating ICR mice; [5]): 19%
% Limb Defects (gestating ICR mice; [5]): 22%
% Resorbed (gestating ICR mice; [5]): 2%
inhibition of 3H-thymidine incorporation in sebocytes (in words) (human sebocyte cultures): effective retinoid
times less teratogenic than Compound 7 in the chondrogenesis assay ([2]; ratio of IC50 values, versus Compound 7): approximately 6.3×10^4 times

EC50 (chimeric RARγ receptor): > 10000 nM
EC50 (chimeric RARβ receptor): > 10 µM
EC50 (chimeric RXRα receptor): 516 nM
EC50 (chimeric RARα receptor): > 10 µM
Structure (SMILES): C/C(=C\c1ccc(C(=O)O)o1)c1cc2c(cc1C)C(C)(C)CCC2(C)C [Compound 4]

EC50 (chimeric RXRα receptor): 139 nM
Structure (SMILES): C/C(=C\C=C\C1C[C@H]1C(=O)O)c1cc2c(cc1C)C(C)(C)CCC2(C)C (stereo partly drawn) [Compound 5, Cis-[2-[4-Methyl-4-(3,5,5,8,8,-pentamethyl-5,6,7,8-tetrahydronapthalen)-2-yl]-1E,3E-butadien-1-yl] 1-Cyclopropane Carboxylic Acid]
